The results in this text go back to US20050192279A1, “Pyridazinones as antagonists of alpha4 integrins” (priority 2004, published 2005).

As a reminder, the IC50 is the concentration that inhibits the measured activity by half.

The structures appear in SMILES notation. Bounds are passed on as bounds.

In one assay the target is T1, α4β1 (Homo sapiens, UniProt P05556+P13612).
T1 construct: Ramos Cell Adhesion Assay (α4β1 Mediated Adhesion/VCAM-1); endogenous in cells; host or cells: Ramos cells
Put plainly: Ramos Cell Adhesion Assay (α4β1 Mediated Adhesion/VCAM-1). The format is cell-based. As to conditions: Ramos cell adhesion to hVCAM-1; read-out: α4β1 IC50. The protocol: Ramos Cell Adhesion Assay (α4β1 Mediated Adhesion/VCAM-1)
Immulon 96 well plates (Dynex) were coated with 100 μL recombinant hVCAM-1 at 4.0 μg/mL in 0.05 M NaCO3 buffer pH 9.0 overnight at 4° C. (R&D Systems). Plates were washed 2 times in PBS with 1% BSA and blocked for 1 h @ room temperature in this buffer. PBS was removed and compounds to be tested (50 μL) were added at 2× concentration. Ramos cells, (50 μL at 2×10^6/mL) labeled with 5 μM Calcein AM (Molecular Probes) for 1 h at 37° C., were added to each well and allowed to adhere for 1 h at room temperature. Plates were washed 4× in PBS+1% BSA and cells were lysed for 15 minutes in 100 μL of 1 M Tris pH 8.0 with 1% SDS.

The next assay has as its target T2, human α4β7 integrin (Homo sapiens, UniProt P13612+P26010).
T2 construct: expressed in transfected cells; host or cells: K562 cells, stably transfected
T2 sequence (P13612 34-1032): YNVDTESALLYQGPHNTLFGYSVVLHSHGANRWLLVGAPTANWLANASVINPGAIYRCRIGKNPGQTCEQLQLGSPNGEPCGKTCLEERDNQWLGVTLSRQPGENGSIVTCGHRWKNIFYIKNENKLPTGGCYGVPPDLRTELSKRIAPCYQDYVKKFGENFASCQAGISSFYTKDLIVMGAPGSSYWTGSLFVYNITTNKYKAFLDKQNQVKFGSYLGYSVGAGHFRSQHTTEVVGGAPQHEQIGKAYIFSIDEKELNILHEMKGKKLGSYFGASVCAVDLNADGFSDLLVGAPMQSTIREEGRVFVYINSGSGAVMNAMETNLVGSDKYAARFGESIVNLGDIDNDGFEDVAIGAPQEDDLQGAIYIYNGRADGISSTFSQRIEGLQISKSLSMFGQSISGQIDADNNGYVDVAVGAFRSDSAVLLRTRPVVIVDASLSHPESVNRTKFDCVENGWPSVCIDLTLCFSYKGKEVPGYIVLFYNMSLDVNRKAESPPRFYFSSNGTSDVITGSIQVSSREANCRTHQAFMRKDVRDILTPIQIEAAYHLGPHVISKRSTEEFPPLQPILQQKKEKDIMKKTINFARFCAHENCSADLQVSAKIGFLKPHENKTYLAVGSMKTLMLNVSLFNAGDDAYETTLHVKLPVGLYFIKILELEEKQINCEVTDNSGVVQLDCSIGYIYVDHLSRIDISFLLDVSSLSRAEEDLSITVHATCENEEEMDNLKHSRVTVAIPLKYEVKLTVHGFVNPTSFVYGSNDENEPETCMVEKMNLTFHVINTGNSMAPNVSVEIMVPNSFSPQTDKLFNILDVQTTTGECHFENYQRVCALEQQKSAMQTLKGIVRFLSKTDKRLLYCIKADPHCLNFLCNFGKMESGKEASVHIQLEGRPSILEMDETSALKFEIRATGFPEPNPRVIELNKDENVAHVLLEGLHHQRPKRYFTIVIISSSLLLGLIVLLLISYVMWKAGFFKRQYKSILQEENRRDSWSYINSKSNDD
T2 sequence (P26010 20-798): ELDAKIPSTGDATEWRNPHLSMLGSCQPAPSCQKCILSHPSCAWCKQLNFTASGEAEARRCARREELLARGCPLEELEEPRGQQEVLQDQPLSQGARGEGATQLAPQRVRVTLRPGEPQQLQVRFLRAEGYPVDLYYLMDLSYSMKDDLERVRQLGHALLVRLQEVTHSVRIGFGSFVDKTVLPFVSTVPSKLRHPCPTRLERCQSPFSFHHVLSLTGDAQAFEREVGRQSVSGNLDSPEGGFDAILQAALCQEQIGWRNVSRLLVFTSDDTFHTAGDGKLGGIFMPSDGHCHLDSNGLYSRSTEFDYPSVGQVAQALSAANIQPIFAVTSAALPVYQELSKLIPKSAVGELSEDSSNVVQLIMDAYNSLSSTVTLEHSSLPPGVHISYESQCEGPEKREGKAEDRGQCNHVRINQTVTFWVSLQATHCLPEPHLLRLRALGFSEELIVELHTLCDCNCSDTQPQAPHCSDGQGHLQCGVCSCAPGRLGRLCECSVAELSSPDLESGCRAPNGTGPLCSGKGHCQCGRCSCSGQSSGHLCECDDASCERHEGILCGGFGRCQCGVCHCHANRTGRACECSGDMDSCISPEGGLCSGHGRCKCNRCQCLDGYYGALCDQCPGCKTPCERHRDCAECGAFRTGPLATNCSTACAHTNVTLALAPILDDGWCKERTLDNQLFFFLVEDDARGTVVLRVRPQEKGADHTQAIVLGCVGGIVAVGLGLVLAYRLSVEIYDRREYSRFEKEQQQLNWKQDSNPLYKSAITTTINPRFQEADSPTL
Nature of the assay: α4β7-K562 Cell Adhesion Assay (α4β7 Mediated Adhesion/MAdCAM-1). The format is cell-based. The following applies: α4β7-K562 cell adhesion to hMAdCAM-1; read-out: α4β7 IC50. The method, then: α4β7-K562 Cell Adhesion Assay (α4β7 Mediated Adhesion/MAdCAM-1)
M2 anti-FLAG Antibody Coated 96-well plates (Sigma) were coated for 1 hour at 4° C. with 2-8 μl/well recombinant FLAG-hMAdCAM-1 contained in 100 μL of Dulbecco's PBS, pH 7.4, with 1% BSA and 1 mM Mn ^+2 (PBS-BSA-Mn). Plates were washed once with PBS-BSA-Mn. Buffer was removed and compounds to be tested (50 μL) were added at 2× concentration. Stably transfected K562 cells expressing human α4β7 integrin, (50 μL at 2×10^6/mL) that had been labeled with 100 μg/ml carboxymethyl fluorescein diacetate succinimidyl ester (CFDA-SE; Molecular Probes) for 15 min at 37° C. were added to each well and allowed to adhere for 1 h at room temperature. Plates were washed 4× in PBS-BSA-Mn and then cells were lysed for 2 minutes by addtion of 100 μL of PBS without Ca, Mg supplemented with 0.1 M NaOH.

T1 sequence (P05556 21-798, one chain of several): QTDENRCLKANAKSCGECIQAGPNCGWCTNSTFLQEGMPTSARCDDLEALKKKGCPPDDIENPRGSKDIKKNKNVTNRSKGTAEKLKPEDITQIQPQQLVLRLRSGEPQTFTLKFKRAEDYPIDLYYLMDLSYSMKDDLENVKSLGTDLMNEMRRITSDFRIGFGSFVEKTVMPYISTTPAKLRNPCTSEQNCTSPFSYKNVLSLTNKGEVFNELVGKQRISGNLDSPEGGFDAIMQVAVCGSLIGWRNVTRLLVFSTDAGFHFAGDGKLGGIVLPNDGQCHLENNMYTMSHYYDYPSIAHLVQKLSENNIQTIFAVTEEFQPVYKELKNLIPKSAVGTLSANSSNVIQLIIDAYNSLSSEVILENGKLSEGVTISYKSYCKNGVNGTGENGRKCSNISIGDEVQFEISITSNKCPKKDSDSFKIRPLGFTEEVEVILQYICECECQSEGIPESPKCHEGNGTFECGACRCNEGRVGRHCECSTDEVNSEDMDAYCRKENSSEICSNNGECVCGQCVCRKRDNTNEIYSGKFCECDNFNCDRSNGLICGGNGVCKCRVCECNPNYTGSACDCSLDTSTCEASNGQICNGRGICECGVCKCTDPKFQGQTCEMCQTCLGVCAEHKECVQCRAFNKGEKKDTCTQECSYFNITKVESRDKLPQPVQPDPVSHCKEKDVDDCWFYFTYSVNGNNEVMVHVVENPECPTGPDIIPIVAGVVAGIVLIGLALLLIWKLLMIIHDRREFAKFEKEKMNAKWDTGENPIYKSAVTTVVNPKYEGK

Turning to `COc1cnn(C)c(=O)c1-c1ccc(C[C@H](NC(=O)C(C(C)C)n2c(C)ccc2C)C(=O)O)cc1` (mixture of isomers) [Cpd 33, 2-[2(2,5-Dimethyl-pyrrol-1-yl)-3-methyl-butyrylamino]-3-[4-(5-methoxy-2-methyl-3-oxo-2,3-dihydro-pyridazin-4-yl)-phenyl]-propionic acid], the IC50 on α4β1 amounted to 2400 nM; at human α4β7 integrin it was 7 nM. The corresponding values for `COc1cnn(C)c(=O)c1-c1ccc(C[C@H](NC(=O)C(c2ccccc2)C(C)C)C(=O)O)cc1` (mixture of isomers) [Cpd 57] are 1220 nM and 18 nM.

For `COc1cnn(C)c(=O)c1-c1ccc(CC(NC(=O)C(NC(=O)OC(C)(C)C)C(C)C)C(=O)O)cc1` (mixture of isomers) [Cpd 58], the IC50 on α4β1 is > 5000 nM; on human α4β7 integrin it was 18 nM.

For the compound `COc1cnn(C)c(=O)c1-c1ccc(C[C@H](NC(=O)C(NS(=O)(=O)c2ccccc2[N+](=O)[O-])C(C)C)C(=O)O)cc1` (mixture of isomers) [Cpd 77], the IC50 at α4β1 was determined as 240 nM; at human α4β7 integrin, 36 nM.

As for `COc1cnn(C)c(=O)c1-c1ccc(CC(NC(=O)C2CCCN2)C(=O)O)cc1` (mixture of isomers) [Cpd 166], the values for the IC50 at α4β1 and on human α4β7 integrin were > 5000 nM and 478 nM, respectively.

On to `COc1cnn(C)c(=O)c1-c1ccc(CC(NC(=O)C2CCCN2C(=O)OC(C)(C)C)C(=O)O)cc1` (mixture of isomers) [Cpd 195], for which the IC50 on α4β1 is > 5000 nM; on human α4β7 integrin it was 1280 nM. As for `CNC(C(=O)NC(Cc1ccc(-c2c(OC)cnn(C)c2=O)cc1)C(=O)O)C(C)C` (single isomer, unassigned) [Cpd 54], the values for the 50% inhibitory concentration (IC50) on α4β1 and at human α4β7 integrin were 4020 nM and 17 nM, respectively.

As to `CNC(C(=O)NC(Cc1ccc(-c2c(OC)cnn(C)c2=O)cc1)C(=O)O)C(C)C` (single isomer, unassigned) [Cpd 123], the IC50 at α4β1 was > 5000 nM; at human α4β7 integrin it was 118 nM. Consider `CCOC(=O)[C@H](Cc1ccc(-c2c(OC)cnn(C)c2=O)cc1)NC(=O)c1c(Cl)cccc1Cl` [Cpd 1], for which the IC50 at α4β1 is > 5000 nM. The same measure, in the same setting: next, `COc1cnn(C)c(=O)c1-c1ccc(C[C@H](NC(=O)C2(NC(C)C)CC2)C(=O)O)cc1` [Cpd 3]: > 5000 nM. Turning to `CCOc1cnn(C)c(=O)c1-c1ccc(C[C@H](NC(=O)c2c(Cl)cccc2Cl)C(=O)O)cc1` [Cpd 4], the IC50 on α4β1 was 168 nM; at human α4β7 integrin, 1 nM. As to `Cn1nc2c(c(-c3ccc(C[C@H](NC(=O)c4c(Cl)cccc4Cl)C(=O)O)cc3)c1=O)OCCO2` [Cpd 6, (S)-2-(2,6-Dichloro-benzoylamino)-3-[4-(2-methyl-3-oxo-2,3,6,7-tetrahydro-[1,4]dioxino[2,3-c]pyridazin-4-yl)-phenyl]-propionic acid], the IC50 at α4β1 was 49 nM; on human α4β7 integrin, 1 nM. On the same counts, the results for `Cn1ncc(OCCOCCO)c(-c2ccc(C[C@H](NC(=O)c3c(Cl)cccc3Cl)C(=O)O)cc2)c1=O` [Cpd 7] are 192 nM and 2 nM.

`Cn1ncc(OCCO)c(-c2ccc(C[C@H](NC(=O)c3c(Cl)cccc3Cl)C(=O)O)cc2)c1=O` [Cpd 8]: the IC50 at α4β1 was determined as 303 nM; at human α4β7 integrin, 2 nM. On the same counts, the results for `COc1cnn(C)c(=O)c1-c1ccc(C[C@H](NC(=O)c2c(Cl)c[n+]([O-])cc2Cl)C(=O)O)cc1` [Cpd 9] are 23 nM and 2 nM. On to `CN1CCC(Oc2cnn(C)c(=O)c2-c2ccc(C[C@H](NC(=O)c3c(Cl)cccc3Cl)C(=O)O)cc2)C1` (stereo partly shown) [Cpd 12], for which the IC50 on α4β1 worked out at 305 nM; on human α4β7 integrin it was 2 nM.

As for `Cn1nc2c(c(-c3ccc(C[C@H](NC(=O)c4c(Cl)cccc4Cl)C(=O)O)cc3)c1=O)NCCO2` [Cpd 13, (S)-2-(2,6-Dichloro-benzoylamino)-3-[4-(2-methyl-3-oxo-3,5,6,7-tetrahydro-2H-pyridazino[3,4-b][1,4]oxazin-4-yl)-phenyl]-propionic acid], the figures for the IC50 on α4β1 and on human α4β7 integrin were 130 nM and 2 nM, respectively. The corresponding values for `COc1cnn(C)c(=O)c1-c1ccc(C[C@H](NC(=O)[C@@H](C(C)C)N(C)C(=O)Cc2ccsc2)C(=O)O)cc1` [Cpd 19] are 44 nM and 3 nM. Take `Cn1ncc(N2CCOCC2)c(-c2ccc(C[C@H](NC(=O)c3c(Cl)cccc3Cl)C(=O)O)cc2)c1=O` [Cpd 20]: the results for the IC50 on α4β1 and at human α4β7 integrin were 484 nM and 3 nM, respectively. The corresponding values for `Cn1ncc(OCCN2CCOCC2)c(-c2ccc(C[C@H](NC(=O)c3c(Cl)cccc3Cl)C(=O)O)cc2)c1=O` [Cpd 21] are 65 nM and 3 nM. `O=C(N[C@@H](Cc1ccc(-c2c(OCCN3CCOCC3)cnn(CCO)c2=O)cc1)C(=O)O)c1c(Cl)cccc1Cl` [Cpd 22]: the half-maximal inhibitory concentration (IC50) came out at 376 nM at α4β1 and 3 nM on human α4β7 integrin. Regarding `CN1CCC(Oc2cnn(CCO)c(=O)c2-c2ccc(C[C@H](NC(=O)c3c(Cl)cccc3Cl)C(=O)O)cc2)CC1` [Cpd 23], the figures for the IC50 at α4β1 and at human α4β7 integrin were 248 nM and 3 nM, respectively.

Take `CC(C)Oc1cnn(CCO)c(=O)c1-c1ccc(C[C@H](NC(=O)c2c(Cl)cccc2Cl)C(=O)O)cc1` [Cpd 24]: the IC50 at α4β1 is 249 nM; at human α4β7 integrin, 4 nM. As to `COc1cnn(C)c(=O)c1-c1ccc(C[C@H](NC(=O)C2(NC(C)C)CC2)C(=O)O)cc1` [Cpd 146], on α4β1, the IC50 is 218 nM.

As to `COc1cnn(C2CCCCC2)c(=O)c1-c1ccc(C[C@H](NC(=O)c2c(Cl)cccc2Cl)C(=O)O)cc1` [Cpd 165], the IC50 at human α4β7 integrin was found to be 471 nM. Take `COC(=O)N[C@@H](Cc1ccc(-c2c(OC)cnn(C)c2=O)cc1)C(=O)O` [Cpd 178]: the IC50 on human α4β7 integrin was 706 nM. Still for that read-out and setting: the result for `COc1cnn(C)c(=O)c1-c1ccc(C[C@H](NC(=O)OC(C)(C)C)C(=O)O)cc1` [Cpd 183] reads 805 nM; that for `COc1cnn(C)c(=O)c1-c1ccc(C[C@H](NC(=O)C2(OCc3ccccc3)CC2)C(=O)O)cc1` [Cpd 230], 92 nM.
